Measured values published in US9328138B2 (priority 2011, dated 2016).

Tests used:
[1] = target: T1, HCV genotype 1b (BK) NS3 modified enzyme with a R155K mutation (Hepatitis C virus genotype 1b, UniProt P26663, R1181K); assay: HCV NS3 protease time-resolved fluorescence (TRF) assay, genotype 1b R155K; type: biochemical; conditions: Ki 1b R155K, genotype 1b (BK) NS3 R155K; single value
T1 construct: HCV genotype 1b (BK) NS3 modified enzyme
Summary of the method: (§1)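 Pre-incubation of NS3/NS4A protease with inhibitor for 10 min in pH 7.5 HEPES buffer with 10 mM DTT; 25 nM TRF peptide substrate, hydrolysis 6 h at room temperature. Fluorescence read at ex 340/em 615 nm with 400 μs delay, enzyme level set for S/B 5-20; IC50 by four-parameter fit.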

[2] = target: HCV NS3 protease genotype 3a (3A-1) (Hepatitis C virus genotype 3a, UniProt Q81258); assay: HCV NS3 protease time-resolved fluorescence (TRF) assay, genotype 3a; type: biochemical; conditions: Ki 3a
Summary of the method: as §1

SMILES | Ki [1] | Ki [2]
C=C[C@@H]1C[C@]1(NC(=O)[C@@H]1C[C@@H]2CN1C(=O)[C@H](C(C)(C)C)NC(=O)O[C@@H]1C[C@H]1CCCCCc1c(nc3ccccc3c1OCCCN(C)C(C)C(O)c1ccccc1)O2)C(=O)NS(=O)(=O)C1(C)CC1 (stereo partly drawn) [Example 190, (1aR,5S,8S,10R,22aR)-5-tert-butyl-N-[(1R,2S)-2-ethenyl-1-{[(1-methylcyclopropyl)sulfonyl]carbamoyl}cyclopropyl]-17-{3-[(1-hydroxy-1-phenylpropan-2-yl)(methyl)amino]propoxy}-3,6-dioxo-1,1a,3,4,5,6,9,10,18,19,20,21,22,22a-tetradecahydro-8H-7,10-methanocyclopropa[18,19][1,10,3,6] dioxadiazacyclononadecino[11,12-b] quinoline-8-carboxamide] | 0.074 nM | 1.5 nM
C=C[C@@H]1C[C@]1(NC(=O)[C@@H]1C[C@@H]2CN1C(=O)[C@H](C1CCCC1)NC(=O)O[C@@H]1CCC[C@H]1CC/C=C/Cc1c(nc3ccccc3c1OC(=O)NC(C)C)O2)C(=O)NS(=O)(=O)C1CC1 [Example 93, (3aR,7S,10S,12R,21E,24aS)-7-cyclopentyl-10-({(1R,2S)-1-[(cyclopropylsulfonyl)carbamoyl]-2-ethenylcyclopropyl}carbamoyl)-5,8-dioxo-1,2,3,3a,5,6,7,8,11,12,20,23,24,24a-tetradecahydro-10H-9,12-methanocyclopenta[18,19][1,10,3,6]dioxadiazacyclononadecino[11,12-b]quinolin-19-yl propan-2-ylcarbamate] | 0.26 nM | 2.8 nM
C=C[C@@H]1C[C@]1(NC(=O)[C@@H]1C[C@@H]2CN1C(=O)[C@H](C(C)(C)C)NC(=O)O[C@@H]1C[C@H]1CCCCCc1c(nc3cc(C(C)C)ccc3c1OCCCN1CCOCC1)O2)C(=O)NS(=O)(=O)C1(C)CC1 [Example 161, (1aR,5S,8S,10R,22aR)-5-tert-butyl-N-[(1R,2S)-2-ethenyl-1-{[(1-methylcyclopropyl)sulfonyl]carbamoyl}cyclopropyl]-17-[3-(morpholin-4-yl)propoxy]-3,6-dioxo-14-(propan-2-yl)-1,1a,3,4,5,6,9,10,18,19,20,21,22,22a-tetradecahydro-8H-7,10-methanocyclopropan[18,19] [1,10,3,6]dioxadiazacyclononadecino [11,12-b]quinoline-8-carboxamide] | 0.31 nM | 2.8 nM
C=C[C@@H]1C[C@]1(NC(=O)[C@@H]1C[C@@H]2CN1C(=O)[C@H](C(C)(C)C)NC(=O)O[C@@H]1CCC[C@H]1CC/C=C/Cc1c(nc3ccccc3c1OCCCN1CCCCC1)O2)C(=O)NS(=O)(=O)C1(C)CC1 [Example 59, (3aR,7S,10S,12R,21E,24aS)-7-tert-butyl-N-[(1R,2S)-2-ethenyl-1-{[(1-methylcyclopropyl)sulfonyl]carbamoyl}cyclopropyl]-5,8-dioxo-19-[3-(piperidin-1-yl)propoxy]-1,2,3,3a,5,6,7,8,11,12,20,23,24,24a-tetra decahydro-10H-9,12-methanocyclopenta[18,19][1,10,3,6] dioxadiazacyclononadecino[11,12-b] quinoline-10-carboxamide] | 0.11 nM | 0.45 nM
C=C[C@@H]1C[C@]1(NC(=O)[C@@H]1C[C@@H]2CN1C(=O)[C@H](C1CCCCC1)NC(=O)O[C@@H]1C[C@H]1CCCCCc1c(nc3c(OC)cccc3c1OCCN1CCOCC1)O2)C(=O)NS(=O)(=O)C1(C)CC1 [Example 128, (1aR,5S,8S,10R,22aR)-5-cyclohexyl-N-[(1R,2S)-2-ethenyl-1-{[(1-methylcyclopropyl)sulfonyl]carbamoyl}cyclopropyl]-13-methoxy-17-[2-(morpholin-4-yl)ethoxy]-3,6-dioxo-1,1a,3,4,5,6,9, 10,18,19,20,21,22,22a-tetradecahydro-8H-7,10-methanocyclopropa [18,19][1,10,3,6]dioxadiaza cyclononadecino[11,12-b]quinoline-8-carboxamide] | 0.41 nM | 13 nM
C=C[C@@H]1C[C@]1(NC(=O)[C@@H]1C[C@@H]2CN1C(=O)[C@H](C(C)(C)C)NC(=O)O[C@@H]1C[C@H]1CCCCCc1c(nc3ccccc3c1OCCCNCCc1cccc3ccccc13)O2)C(=O)NS(=O)(=O)C1(C)CC1 [Example 189, (1aR,5S,8S,10R,22aR)-5-tert-butyl-N-[(1R,2S)-2-ethenyl-1-{[(1-methylcyclopropyl)sulfonyl]carbamoyl}cyclopropyl]-17-(3-{[2-(naphthalen-1-yl)ethyl]amino}propoxy)-3,6-dioxo-1,1a,3,4,5,6,9,10,18,19,20, 21,22,22a-tetradecahydro-8H-7,10-methanocyclopropa[18,19][1,10,3,6] dioxadiazacyclononadecino[11,12-b] quinoline-8-carboxamide] | 0.081 nM | 3.4 nM
C=C[C@@H]1C[C@]1(NC(=O)[C@@H]1C[C@@H]2CN1C(=O)[C@H](C1CCCCC1)NC(=O)O[C@@H]1C[C@H]1CCCCCc1c(nc3ccccc3c1OCCCN1CCN(S(C)(=O)=O)CC1)O2)C(=O)NS(=O)(=O)C1(C)CC1 [Example 165, (1aR,5S,8S,10R,22aR)-5-cyclohexyl-N-[(1R,2S)-2-ethenyl-1-{[(1-methylcyclopropyl)sulfonyl]carbamoyl}cyclopropyl]-17-{3-[4-(methylsulfonyl)piperazin-1-yl]propoxy}-3,6-dioxo-1,1a,3,4,5,6,9,10, 18,19,20,21,22,22a-tetradecahydro-8H-7,10-methanocyclopropa[18,19][1,10,3,6] dioxadiazacyclononadecino[11,12-b] quinoline-8-carboxamide] | 0.24 nM | 2.8 nM
C=C[C@@H]1C[C@]1(NC(=O)[C@@H]1C[C@@H]2CN1C(=O)[C@H](C(C)(C)C)NC(=O)O[C@@H]1CCC[C@H]1CCCCCc1c(nc3ccccc3c1OCCCN1CCOCC1)O2)C(=O)NS(=O)(=O)C1(COC)CC1 [Example 64, (3aR,7S,10S,12R, 24aR)-7-tert-butyl-N-[(1R,2S)-2-ethenyl-1-({[1-(methoxymethyl)cyclopropyl]sulfonyl}carbamoyl)cyclopropyl]-19-[3-(morpholin-4-yl)propoxy]-5,8-dioxo-1,2,3,3a,5,6,7,8, 11,12,20,21,22,23,24, 24a-hexadecahydro-10H-9,12-methanycyclopenta [18,19][1,10,3,6] dioxadiazacyclo-nonadecino [11,12-b]quinoline-10-carboxamide] | 0.43 nM | 5.5 nM
C=C[C@@H]1C[C@]1(NC(=O)[C@@H]1C[C@@H]2CN1C(=O)[C@H](C(C)(C)C)NC(=O)O[C@@H]1C[C@H]1CCCCCc1c(nc3ccccc3c1OCCCN(CCO)Cc1ccccc1)O2)C(=O)NS(=O)(=O)C1(C)CC1 [Example 187, (1aR,5S,8S,10R,22aR)-17-{3-[benzyl(2-hydroxyethyl)amino]propoxy}-5-tert-butyl-N-[(1R,2S)-2-ethenyl-1-{[(1-methylcyclopropyl)sulfonyl]carbamoyl}cyclopropyl]-3,6-dioxo-1,1a, 3,4,5,6,9,10,18,19,20,21,22,22a-tetradecahydro-8H-7,10-methanocyclopropa[18,19][1,10,3,6] dioxadiazacyclononadecino[11,12-b] quinoline-8-carboxamide] | 0.24 nM | 6.1 nM
C=C[C@@H]1C[C@]1(NC(=O)[C@@H]1C[C@@H]2CN1C(=O)[C@H](C(C)(C)C)NC(=O)O[C@@H]1C[C@H]1CCCCCc1c(nc3ccccc3c1OCCN1CCS(=O)(=O)CC1)O2)C(=O)NS(=O)(=O)C1(C)CC1 [Example 176, (1aR,5S,8S,10R,22aR)-5-tert-butyl-17-[2-(1,1-dioxidothiomorpholin-4-yl)ethoxy]-N-[(1R,2S)-2-ethenyl-1-{[(1-methylcyclopropyl)sulfonyl]carbamoyl}cyclopropyl]-3,6-dioxo-1,1a,3,4,5,6,9,10,18,19,20,21,22,22a-tetradecachydro-8H-7,10-methanocyclopropa[18,19][1,10,3,6] dioxadiazacyclononadecino[11,12-b] quinoline-8-carboxamide] | 0.1 nM | 1.3 nM
C=C[C@@H]1C[C@]1(NC(=O)[C@@H]1C[C@@H]2CN1C(=O)[C@H](C1CCCC1)NC(=O)O[C@@H]1CCC[C@H]1CC/C=C/Cc1c(nc3cc(Cl)ccc3c1OC)O2)C(=O)NS(=O)(=O)C1CC1 [Example 9, (3aR,7S,10S,12R,21E,24aS)-16-chloro-7-cyclopentyl-N-{(1R,2S)-1-[(cyclopropylsulfonyl)carbamoyl]-2-ethenylcyclopropyl}-19-methoxy-5,8-dioxo-1,2,3,3a,5,6,7,8,11,12,20,23,24,24a-tetradecahydro-10H-9,12-methanocyclopenta [18,19][1,10,3,6]dioxadiazacyclononadecino [11,12-b]quinoline-10-carboxamide] | 0.14 nM | 2.9 nM
CCOc1c2c(nc3ccccc13)O[C@@H]1C[C@@H](C(=O)N[C@]3(C(=O)NS(=O)(=O)C4CC4)C[C@H]3CC)N(C1)C(=O)[C@H](C1CCCC1)NC(=O)O[C@@H]1CCC[C@H]1CCCCC2 [Example 25, (3aR,7S,10S,12R,24aR)-7-cyclo pentyl-N-{(1R,2R)-1-[(cyclopropylsulfonyl)carbamoyl]-2-ethylcyclopropyl}-19-ethoxy-5,8-dioxo-1,2,3,3a,5,6,7,8,11,12,20,21,22,23,24,24a-hexadecahydro-10H-9,12-methanocyclopenta[18,19][1,10,3,6]dioxa diazacyclononadecino[11,12-b]quinoline-10-carboxamide] | 5.2 nM | 88 nM
